Assay results published in article PMC8944975, “Secretin Receptor as a Target in Gastrointestinal Cancer: Expression Analysis and Ligand Development” (Biomedicines, 2022).
pEC50: −log10 of the molar value.

Target: human SCTR (Homo sapiens, UniProt P47872)
Test: agonist-induced β-arr2-GFP translocation
Assay type: cell-based
Parameters: expressed in transfected cells; host or cells: U2OS (human osteosarcoma), stably co-transfected with β-arrestin2-GFP
Details: for β-arrestin2-GFP agonism efficacy / pEC50: Supplementary Tables S1 and S2, decimal comma, '-' not detectable (Figure 4); for β-arrestin2-GFP agonism efficacy: % of wild-type secretin; for pEC50: 20 min at 37 °C, mean of at least three independent experiments in duplicates, read-out: β-arrestin2-GFP agonism potency
Description: U2OS-SCTR/β-arr2-GFP: human osteosarcoma cell line U2OS (purchased from ATCC/LGC Standards, Wesel, Germany) were stably transfected with plasmids encoding SCTR (Homo sapiens) and the fusion protein β-arrestin2-green fluorescent protein (GFP) (Rattus norvegicus-Aequorea victoria) (β-arr2-GFP).
To evaluate reactivity of human SCTR exposed to different ligand variants, intracellular translocation of a fusion protein of β-arrestin2 and green fluorescent protein was utilized. For evaluation of activation, receptor-mediated recruitment of cytoplasmic β-arr2-GFP was monitored through its translocation into condensed intracellular vesicles. The extent of translocation events was quantified by determining the increasing granularization of the intracellular fluorescence utilizing an automated high-throughput microscope in combination with computational algorithms to estimate potency (EC50) and efficacy, thus characterizing ligand-SCTR interaction. U2OS-SCTR/β-arr2-GFP cells were seeded in 96-well cell culture plates to 60–80% confluence. On the following day, preceding stimulation, cells were incubated for one hour in serum-free medium. Ligand variants were applied as serial dilutions in assay buffer C1. After preincubation, supernatant was discarded by tapping plates overhead repeatedly. For stimulation, 50 µL of ligand dilution was applied per well in duplicates and incubated for 20 min at 37 °C. Successively, cells were fixed by applying 4% buffered formaldehyde (Herbeta Arzneimittel, Berlin, Germany) for 10 min at room temperature and consecutively permeabilized for 10 min at room temperature with 0.1% TritonX-100 in PBS, containing DAPI (4′,6-Diamidin-2-phenylindol, SigmaAldrich, Deisenhofen, Germany, 1 µg/mL) to counterstain nuclei. Microscopic images were recorded by an IN Cell Analyzer 1000 (GE Healthcare, Reading, UK) with 20× magnification at 5 frames per well in a 96-well format. Image processing was performed with IN Cell Investigator software (GE Healthcare, Reading, UK), applying the provided granularity algorithm. The output of the analysis was indicated as vesicle area/cell and was utilized for calculation of concentration–response curves. Parameters derived from curve fitting included the concentration of half-maximal activity (EC50), and intrinsic activity. Intrinsic activity was normalized defining reaction to non-modified wild type secretin as the 100% curve maximum value.

Sequence of human SCTR (P47872 23-440): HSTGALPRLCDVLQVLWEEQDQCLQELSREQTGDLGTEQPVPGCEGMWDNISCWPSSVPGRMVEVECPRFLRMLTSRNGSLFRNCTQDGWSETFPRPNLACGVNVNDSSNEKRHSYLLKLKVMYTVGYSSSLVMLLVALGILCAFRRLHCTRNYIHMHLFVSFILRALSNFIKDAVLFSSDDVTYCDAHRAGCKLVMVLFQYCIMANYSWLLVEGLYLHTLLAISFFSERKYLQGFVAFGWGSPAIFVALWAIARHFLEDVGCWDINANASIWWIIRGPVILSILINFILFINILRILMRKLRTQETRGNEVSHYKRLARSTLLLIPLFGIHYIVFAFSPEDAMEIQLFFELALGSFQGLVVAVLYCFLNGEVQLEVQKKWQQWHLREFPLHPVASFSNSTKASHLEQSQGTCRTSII

| Compound | β-arrestin2-GFP agonism efficacy | pEC50 (U2OS-SCTR/β-arr2-GFP cells) | SCTR activation (agonism) in the β-arr2-GFP translocation assay, in words (U2OS-SCTR/β-arr2-GFP cells) |
| --- | --- | --- | --- |
| CC(C)C[C@H](NC(=O)[C@H](CCCNC(=N)N)NC(=O)[C@H](C)NC(=O)CNC(=O)[C@H](CCC(=O)O)NC(=O)[C@H](CCCNC(=N)N)NC(=O)[C@H](CC(C)C)NC(=O)[C@H](CCCNC(=N)N)NC(=O)[C@H](CO)NC(=O)[C@H](CC(C)C)NC(=O)[C@H](CCC(=O)O)NC(=O)[C@H](CO)NC(=O)[C@@H](NC(=O)[C@H](Cc1ccccc1)NC(=O)[C@@H](NC(=O)CNC(=O)[C@H](CC(=O)O)NC(=O)[C@H](CO)NC(=O)[C@@H](N)Cc1c[nH]cn1)[C@@H](C)O)[C@@H](C)O)C(=O)N[C@@H](CCC(N)=O)C(=O)N[C@@H](CCCNC(=N)N)C(=O)N[C@@H](CC(C)C)C(=O)N[C@@H](CC(C)C)C(=O)N[C@@H](CCC(N)=O)C(=O)NCC(=O)N1CCC[C@H]1C(=O)N[C@H](C(=O)O)C(C)C [Peptide 84] | 95,03 % Sec | 7.14 | – |
| CC(C)C[C@H](NC(=O)[C@H](CCCNC(=N)N)NC(=O)[C@H](C)NC(=O)CNC(=O)[C@H](CCC(=O)O)NC(=O)[C@H](CCCNC(=N)N)NC(=O)[C@H](CC(C)C)NC(=O)[C@H](CCCNC(=N)N)NC(=O)[C@H](CO)NC(=O)[C@H](CC(C)C)NC(=O)[C@H](CCC(=O)O)NC(=O)[C@H](CO)NC(=O)[C@@H](NC(=O)[C@H](Cc1ccccc1)NC(=O)[C@@H](NC(=O)CNC(=O)[C@H](CC(=O)O)NC(=O)[C@H](CO)NC(=O)[C@@H](N)Cc1c[nH]cn1)[C@@H](C)O)[C@@H](C)O)C(=O)N[C@@H](CCC(N)=O)C(=O)N[C@@H](CCCNC(=N)N)C(=O)N[C@@H](CC(C)C)C(=O)N[C@@H](CC(C)C)C(=O)N[C@@H](CCC(N)=O)C(=O)NCC(=O)N[C@@H](CC(C)C)C(=O)N1CCC[C@H]1C(=O)O [Peptide 85] | 100,47 % Sec | 8.28 | – |
| CC(C)C[C@H](NC(=O)CNC(=O)[C@H](CCC(N)=O)NC(=O)[C@H](CC(C)C)NC(=O)[C@H](CC(C)C)NC(=O)[C@H](CCCNC(=N)N)NC(=O)[C@H](CCC(N)=O)NC(=O)[C@H](CC(C)C)NC(=O)[C@H](CCCNC(=N)N)NC(=O)[C@H](C)NC(=O)CNC(=O)[C@H](CCC(=O)O)NC(=O)[C@H](CCCNC(=N)N)NC(=O)[C@H](CC(C)C)NC(=O)[C@H](CCCNC(=N)N)NC(=O)[C@H](CO)NC(=O)[C@H](CC(C)C)NC(=O)[C@H](CCC(=O)O)NC(=O)[C@H](CO)NC(=O)[C@@H](NC(=O)[C@H](Cc1ccccc1)NC(=O)[C@@H](NC(=O)CNC(=O)[C@H](CC(=O)O)NC(=O)[C@H](CO)NC(=O)[C@H](N)Cc1c[nH]cn1)[C@@H](C)O)[C@@H](C)O)C(=O)N[C@H](C(=O)O)C(C)C [Peptide 86] | 107,20 % Sec | – | – |
| CC(C)C[C@H](NC(=O)CNC(=O)[C@H](CCC(N)=O)NC(=O)[C@H](CC(C)C)NC(=O)[C@H](CC(C)C)NC(=O)[C@H](CCCNC(=N)N)NC(=O)[C@H](CCC(N)=O)NC(=O)[C@H](CC(C)C)NC(=O)[C@H](CCCNC(=N)N)NC(=O)[C@H](C)NC(=O)CNC(=O)[C@H](CCC(=O)O)NC(=O)[C@H](CCCNC(=N)N)NC(=O)[C@H](CC(C)C)NC(=O)[C@H](CCCNC(=N)N)NC(=O)[C@H](CO)NC(=O)[C@H](CC(C)C)NC(=O)[C@H](CCC(=O)O)NC(=O)[C@H](CO)NC(=O)[C@@H](NC(=O)[C@H](Cc1ccccc1)NC(=O)[C@@H](NC(=O)CNC(=O)[C@H](CC(=O)O)NC(=O)[C@@H](CO)NC(=O)[C@@H](N)Cc1c[nH]cn1)[C@@H](C)O)[C@@H](C)O)C(=O)N[C@H](C(=O)O)C(C)C [Peptide 87] | 91,57 % Sec | – | – |
| CC(C)C[C@H](NC(=O)CNC(=O)[C@H](CCC(N)=O)NC(=O)[C@H](CC(C)C)NC(=O)[C@H](CC(C)C)NC(=O)[C@H](CCCNC(=N)N)NC(=O)[C@H](CCC(N)=O)NC(=O)[C@H](CC(C)C)NC(=O)[C@H](CCCNC(=N)N)NC(=O)[C@H](C)NC(=O)CNC(=O)[C@H](CCC(=O)O)NC(=O)[C@H](CCCNC(=N)N)NC(=O)[C@H](CC(C)C)NC(=O)[C@H](CCCNC(=N)N)NC(=O)[C@H](CO)NC(=O)[C@H](CC(C)C)NC(=O)[C@H](CCC(=O)O)NC(=O)[C@H](CO)NC(=O)[C@@H](NC(=O)[C@H](Cc1ccccc1)NC(=O)[C@@H](NC(=O)CNC(=O)[C@@H](CC(=O)O)NC(=O)[C@H](CO)NC(=O)[C@@H](N)Cc1c[nH]cn1)[C@@H](C)O)[C@@H](C)O)C(=O)N[C@H](C(=O)O)C(C)C [Peptide 88] | 89,07 % Sec | – | – |
| CC(C)C[C@H](NC(=O)CNC(=O)[C@H](CCC(N)=O)NC(=O)[C@H](CC(C)C)NC(=O)[C@H](CC(C)C)NC(=O)[C@H](CCCNC(=N)N)NC(=O)[C@H](CCC(N)=O)NC(=O)[C@H](CC(C)C)NC(=O)[C@H](CCCNC(=N)N)NC(=O)[C@H](C)NC(=O)CNC(=O)[C@H](CCC(=O)O)NC(=O)[C@H](CCCNC(=N)N)NC(=O)[C@H](CC(C)C)NC(=O)[C@H](CCCNC(=N)N)NC(=O)[C@H](CO)NC(=O)[C@H](CC(C)C)NC(=O)[C@H](CCC(=O)O)NC(=O)[C@H](CO)NC(=O)[C@@H](NC(=O)[C@H](Cc1ccccc1)NC(=O)[C@H](NC(=O)CNC(=O)[C@H](CC(=O)O)NC(=O)[C@H](CO)NC(=O)[C@@H](N)Cc1c[nH]cn1)[C@H](C)O)[C@@H](C)O)C(=O)N[C@H](C(=O)O)C(C)C [Peptide 89] | 102,97 % Sec | – | – |

Second part, the compound after the results:

| β-arrestin2-GFP agonism efficacy | pEC50 (U2OS-SCTR/β-arr2-GFP cells) | SCTR activation (agonism) in the β-arr2-GFP translocation assay, in words (U2OS-SCTR/β-arr2-GFP cells) | Compound |
| --- | --- | --- | --- |
| 100,40 % Sec | – | – | CC(C)C[C@H](NC(=O)CNC(=O)[C@H](CCC(N)=O)NC(=O)[C@H](CC(C)C)NC(=O)[C@H](CC(C)C)NC(=O)[C@H](CCCNC(=N)N)NC(=O)[C@H](CCC(N)=O)NC(=O)[C@H](CC(C)C)NC(=O)[C@H](CCCNC(=N)N)NC(=O)[C@H](C)NC(=O)CNC(=O)[C@H](CCC(=O)O)NC(=O)[C@H](CCCNC(=N)N)NC(=O)[C@H](CC(C)C)NC(=O)[C@H](CCCNC(=N)N)NC(=O)[C@H](CO)NC(=O)[C@H](CC(C)C)NC(=O)[C@@H](CCC(=O)O)NC(=O)[C@H](CO)NC(=O)[C@@H](NC(=O)[C@H](Cc1ccccc1)NC(=O)[C@@H](NC(=O)CNC(=O)[C@H](CC(=O)O)NC(=O)[C@H](CO)NC(=O)[C@@H](N)Cc1c[nH]cn1)[C@@H](C)O)[C@@H](C)O)C(=O)N[C@H](C(=O)O)C(C)C [Peptide 93] |
| 94,17 % Sec | – | – | CC(C)C[C@H](NC(=O)CNC(=O)[C@H](CCC(N)=O)NC(=O)[C@H](CC(C)C)NC(=O)[C@H](CC(C)C)NC(=O)[C@H](CCCNC(=N)N)NC(=O)[C@H](CCC(N)=O)NC(=O)[C@H](CC(C)C)NC(=O)[C@H](CCCNC(=N)N)NC(=O)[C@H](C)NC(=O)CNC(=O)[C@H](CCC(=O)O)NC(=O)[C@H](CCCNC(=N)N)NC(=O)[C@H](CC(C)C)NC(=O)[C@H](CCCNC(=N)N)NC(=O)[C@H](CO)NC(=O)[C@@H](CC(C)C)NC(=O)[C@H](CCC(=O)O)NC(=O)[C@H](CO)NC(=O)[C@@H](NC(=O)[C@H](Cc1ccccc1)NC(=O)[C@@H](NC(=O)CNC(=O)[C@H](CC(=O)O)NC(=O)[C@H](CO)NC(=O)[C@@H](N)Cc1c[nH]cn1)[C@@H](C)O)[C@@H](C)O)C(=O)N[C@H](C(=O)O)C(C)C [Peptide 94] |
| 101,90 % Sec | – | – | CC(C)C[C@H](NC(=O)[C@H](CCCNC(=N)N)NC(=O)[C@H](C)NC(=O)CNC(=O)[C@H](CCC(=O)O)NC(=O)[C@H](CCCNC(=N)N)NC(=O)[C@H](CC(C)C)NC(=O)[C@H](CCCNC(=N)N)NC(=O)[C@H](CO)NC(=O)[C@H](CC(C)C)NC(=O)[C@H](CCC(=O)O)NC(=O)[C@H](CO)NC(=O)[C@@H](NC(=O)[C@H](Cc1ccccc1)NC(=O)[C@@H](NC(=O)CNC(=O)[C@H](CC(=O)O)NC(=O)[C@H](CO)NC(=O)[C@@H](N)Cc1c[nH]cn1)[C@@H](C)O)[C@@H](C)O)C(=O)N[C@@H](CCC(N)=O)C(=O)N[C@@H](CCCNC(=N)N)C(=O)N[C@@H](CC(C)C)C(=O)N[C@@H](CC(C)C)C(=O)N[C@@H](CCC(N)=O)C(=O)NCC(=O)N[C@H](CC(C)C)C(=O)N[C@H](C(=O)O)C(C)C [Peptide 95] |
| – | – | no SCTR activation | GLP-2: structurally related glucagon-like peptide 2 [reference compound] |
| 90,37 % Sec | – | – | HSDGTFTsELSRLREGARLQRLLQGLV [Peptide 92, D-amino acid substitution variant of human secretin] |
| 98,33 % Sec | – | – | HSDGTFtSELSRLREGARLQRLLQGLV [Peptide 91, D-amino acid substitution variant of human secretin] |
